Experimental data as given in PubChem BioAssay AID1334 (NMMLSC, 2008).

Each compound was assayed against Cell division control protein 42 homolog (Homo sapiens) (UniProt P60953) (assay: inhibition of fluorescent GTP binding to wildtype Cdc42 – biochemical, multiplex bead flow cytometry, Bodipy-FL-GTP, dose response (AID 1334;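 further: potency of inhibiting fluorescent GTP binding to Cdc42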)). Settings: bead-based flow cytometry, Bodipy-FL-GTP binding to GST-Cdc42.
Chain of Cell division control protein 42 homolog (Homo sapiens) (P60953 whole entry, looked up): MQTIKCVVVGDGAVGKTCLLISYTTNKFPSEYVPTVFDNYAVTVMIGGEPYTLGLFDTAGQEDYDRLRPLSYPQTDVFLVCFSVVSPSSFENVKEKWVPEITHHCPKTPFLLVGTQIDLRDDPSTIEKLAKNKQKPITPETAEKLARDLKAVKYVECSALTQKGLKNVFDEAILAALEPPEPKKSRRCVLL

Question: `O=C(Nc1nnc(-c2ccc3c(c2)OCCO3)o1)c1ccc(Cc2ccccc2)cc1` was tested. Which EC50 did it give?
Answer: 0.355 µM

Question: For `CCOC(=O)c1c(NC(=O)C(=O)N/N=C/c2ccc(O)c(OC)c2)sc2c1CCCCC2`, which EC50 is on record?
Answer: 2.87 µM

Question: How did the EC50 turn out when `CCc1ccc(NS(=O)(=O)c2ccc3[nH]cc(C(=O)N4CCc5ccccc54)c(=O)c3c2)cc1` was run?
Answer: 18.9 µM

Question: For `CCC(C(=O)NC1CCCC1)N(C(=O)Cn1nnc(-c2ccc(C)o2)n1)c1cnc2ccccc2c1` (configuration not stated), which EC50 is on record?
Answer: 34.6 µM

Question: How did the EC50 turn out when `CS(=O)(=O)c1ccc(C(=O)OCC(=O)NC(=O)C2CCCCC2)cc1[N+](=O)[O-]` was run?
Answer: 53.1 µM

Question: For `Cc1cc(C)c(C)c(C(=O)c2ccccc2C(=O)O)c1C`, which EC50 is on record?
Answer: 5.95 µM

Question: For `N#Cc1c(-c2ccccc2)nc(SCC(=O)Nc2ccccc2)[nH]c1=O`, which EC50 is on record?
Answer: 2.1 µM

Question: For `O=C(O)/C=C/c1cn(Cc2ccccc2)nc1-c1cccs1`, which EC50 is on record?
Answer: 3.99 µM

Question: With `CCCc1nc2c(=O)n(C)c(=O)nc-2n(C)n1` as the compound, how does the EC50 read?
Answer: 1.33 µM

Question: `COc1ccc(C2CC(c3ccccc3)=NN2c2ccc(S(N)(=O)=O)cc2)cc1` (configuration not stated) was tested. Which EC50 did it give?
Answer: 3.2 µM

Question: How did the EC50 turn out when `Cc1nc2c(=O)n(C)c(=O)nc-2n(C)n1` was run?
Answer: 1.96 µM

Question: With `NS(=O)(=O)c1ccc(N2N=C(c3ccccc3)CC2c2cccc(F)c2)cc1` (configuration not stated) as the compound, how does the EC50 read?
Answer: 4.87 µM

Question: How did the EC50 turn out when `O=C(O)c1ccccc1OCc1ccccc1Br` was run?
Answer: 0.103 µM

Question: `CCOC(=O)c1cc([N+](=O)[O-])c([N+](=O)[O-])cc1NC(C)=O` was tested. Which EC50 did it give?
Answer: 7.19 µM

Question: `COC(=O)c1cccnc1SCCc1ccccc1` was tested. Which EC50 did it give?
Answer: 18.7 µM

Question: `Cc1cccc2cc(CN(Cc3cccs3)C(c3nnnn3C3CCCC3)C(C)C)c(=O)[nH]c12` (configuration not stated) was tested. Which EC50 did it give?
Answer: 1.96 µM

Question: How did the EC50 turn out when `Cc1sc2nc3ccc(NCc4ccco4)nn3c(=O)c2c1C` was run?
Answer: 21.5 µM

Question: For `CCCN1C(=O)/C(=C/C=C2\N(CC)c3ccccc3C2(C)C)SC1=S`, which EC50 is on record?
Answer: 5.49 µM

Question: With `COc1ccc(-c2cc(C#N)nc(N3CCNCC3)n2)cc1` as the compound, how does the EC50 read?
Answer: 28.1 µM

Question: For `O=C(NCc1cccs1)c1cccnc1C(=O)O`, which EC50 is on record?
Answer: 4.01 µM

Question: How did the EC50 turn out when `O=C(O)c1ccccc1Sc1ncnc2sc3c(c12)CCC3` was run?
Answer: 4.38 µM

Question: Which EC50 does the source give for `CC(=O)c1ccc(C#CC(=O)c2ccc([N+](=O)[O-])cc2)cc1` here?
Answer: 0.394 µM

Question: For `Cc1ccc(C)c(OCCn2cc(C(=O)O)c3ccccc32)c1`, which EC50 is on record?
Answer: 0.584 µM

Question: `CCn1nc(/C=C/c2ccccc2)nc2c(=O)n(C)c(=O)nc1-2` was tested. Which EC50 did it give?
Answer: 1.55 µM

Question: `NS(=O)(=O)c1ccc(N2N=C(c3ccccc3)CC2c2ccccc2)cc1` (configuration not stated) was tested. Which EC50 did it give?
Answer: 8.22 µM

Question: Which EC50 does the source give for `CCOc1ccc(/C=C2\SC(N3CCc4ccccc4C3)=NC2=O)cc1` here?
Answer: 40.5 µM

Question: `CCOC(=O)Cn1nnnc1C(C(C)C)N(Cc1cccs1)Cc1cc2cc(C)ccc2[nH]c1=O` (configuration not stated) was tested. Which EC50 did it give?
Answer: 7.28 µM

Question: With `S=C(Nc1ccc(Oc2ccccc2)cc1)NC1CCCCC1` as the compound, how does the EC50 read?
Answer: 32.8 µM

Question: `CC(C)C(NCc1c(Cl)cccc1Cl)C(=O)O` (configuration not stated) was tested. Which EC50 did it give?
Answer: 6.4 µM

Question: `O=C(O)c1ccccc1NCCc1ccc(Cl)cc1` was tested. Which EC50 did it give?
Answer: 1.53 µM

Question: `CCS(=O)(=O)N1N=C(c2cccc(NS(C)(=O)=O)c2)CC1c1ccc(C)cc1` (configuration not stated) was tested. Which EC50 did it give?
Answer: 2.6 µM

Question: `CCCS(=O)(=O)c1nnnn1-c1cccc(OC)c1` was tested. Which EC50 did it give?
Answer: 19.3 µM
